Experimental data as given in ChEMBL document CHEMBL4699511, “Cedrol, a Sesquiterpene Alcohol, Enhances the Anticancer Efficacy of Temozolomide in Attenuating Drug Resistance via Regulation of the DNA Damage Response and MGMT Expression” (J Nat Prod, 2020).
Calls of active or inactive are those of the source. The rule behind the calls is not given here.

Tests used:
[1] = Effect on JNK expression in human DBTRG-05MG cells at 206 uM after 48 hrs by Western blot analysis (reference value: 1); assay type: functional
RG2 [2] = test: Induction of apoptosis in rat RG2 cells assessed as increase in apoptotic body formation at 206 uM after 48 hrs by TUNEL assay; assay type: functional, cell-based
[3] = Effect on ERK expression in human DBTRG-05MG cells at 206 uM after 48 hrs by Western blot analysis (reference value: 1); assay type: functional
RG2 [4] = test: Induction of cell cycle arrest in rat RG2 cells assessed as accumulation at S phase at 206 uM after 24 hrs by propidium iodide staining based flow cytometric analysis (reference value: 20.15 +/- 2.44%); assay type: functional
DBTRG-05MG [5] = test: Induction of DNA damage in human DBTRG-05MG cells assessed as ATR phosphorylation at ser428 residues at 206 uM after 48 hrs by Western blot analysis (reference value: 1); assay type: functional
DBTRG-05MG [6] = test: Induction of cell cycle arrest in human DBTRG-05MG cells assessed as accumulation at G0/G1 phase at 206 uM after 24 hrs by propidium iodide staining based flow cytometric analysis (reference value: 47.16 +/- 1.55%); assay type: functional
DBTRG-05MG [7] = test: Induction of DNA damage in human DBTRG-05MG cells assessed as Chk2 phosphorylation at Thr68 residues at 206 uM after 48 hrs by Western blot analysis (reference value: 1); assay type: functional
DBTRG-05MG [8] = test: Induction of cell cycle arrest in human DBTRG-05MG cells assessed as accumulation at G2/M phase at 206 uM after 6 hrs by propidium iodide staining based flow cytometric analysis (reference value: 30.08 +/- 0.1%); assay type: functional
DBTRG-05MG [9] = test: Induction of cell cycle arrest in human DBTRG-05MG cells assessed as accumulation at G2/M phase at 206 uM after 24 hrs by propidium iodide staining based flow cytometric analysis (reference value: 30.08 +/- 0.1%); assay type: functional
RG2 [10] = test: Induction of apoptosis in rat RG2 cells assessed as Bcl2 expression at 206 uM after 48 hrs by Western blot analysis (reference value: 1); assay type: functional
RG2 [11] = test: Induction of cell cycle arrest in rat RG2 cells assessed as accumulation at G2/M phase at 206 uM after 24 hrs by propidium iodide staining based flow cytometric analysis (reference value: 20.04 +/- 0.55%); assay type: functional
RG2 [12] = test: Induction of apoptosis in rat RG2 cells assessed as phosphorylated PARP expression at 206 uM after 48 hrs by Western blot analysis (reference value: 1); assay type: functional
DBTRG-05MG [13] = test: Synergistic cytotoxicity against human DBTRG-05MG cells assessed as synergistic effect index at 112.4 uM after 48 hrs in presence of 103 uM TMZ by MTT assay; assay type: functional
DBTRG-05MG [14] = test: Induction of apoptosis in human DBTRG-05MG cells assessed as increase in chromatin condensation at 112.4 uM after 48 hrs by TUNEL assay; assay type: functional, cell-based
DBTRG-05MG [15] = test: Potentiation of TMZ-induced antitumor activity against human DBTRG-05MG cells xenografted in BALB/c nude mouse assessed as reduction in tumor growth at 75 mg/kg, sc co-treated with TMZ for 18 days by PCNA staining-based bright field microscopic analysis; assay type: functional, organism-based; conditions: time 18.0 day
DBTRG-05MG [16] = test: Induction of cell cycle arrest in human DBTRG-05MG cells assessed as CDK4 expression at 112.4 uM after 48 hrs by Western blot analysis (reference value: 1); assay type: functional
DBTRG-05MG [17] = test: Induction of cell cycle arrest in human DBTRG-05MG cells assessed as accumulation at G2/M phase at 112.4 uM after 6 hrs by propidium iodide staining based flow cytometric analysis (reference value: 30.08 +/- 0.1%); assay type: functional
RG2 [18] = test: Induction of cell cycle arrest in rat RG2 cells assessed as accumulation at G2/M phase at 112.4 uM after 48 hrs in presence of TMZ by propidium iodide staining based flow cytometric analysis (reference value: 20.04 +/- 0.55%); assay type: functional
DBTRG-05MG [19] = test: Synergistic cytotoxicity against human DBTRG-05MG cells assessed as synergistic effect index at 112.4 uM after 48 hrs in presence of 515.1 uM TMZ by MTT assay; assay type: functional
RG2 [20] = test: Induction of apoptosis in rat RG2 cells assessed as Bax expression at 112.4 uM after 48 hrs by Western blot analysis (reference value: 1); assay type: functional
DBTRG-05MG [21] = test: Induction of apoptosis in human DBTRG-05MG cells assessed as phosphorylated caspace-9 expression at 112.4 uM after 48 hrs in presence of TMZ by Western blot analysis (reference value: 1); assay type: functional
RG2 [22] = test: Synergistic cytotoxicity against rat RG2 cells assessed as combination index at 89.9 uM after 48 hrs in presence of 309 uM TMZ by MTT assay; assay type: functional
DBTRG-05MG [23] = test: Synergistic cytotoxicity against human DBTRG-05MG cells assessed as synergistic effect index at 89.9 uM after 48 hrs in presence of 103 uM TMZ by MTT assay; assay type: functional
RG2 [24] = test: Induction of cell cycle arrest in rat RG2 cells assessed as CyclinB1 expression at 112.4 uM after 48 hrs by Western blot analysis (reference value: 1); assay type: functional
DBTRG-05MG [25] = test: Induction of cell cycle arrest in human DBTRG-05MG cells assessed as CDK2 expression at 112.4uM after 48 hrs in presence of TMZ by Western blot analysis (reference value: 1); assay type: functional
[26] = Effect of CD133 expression in human DBTRG-05MG cells at 112.4 uM after 48 hrs by Western blot analysis; assay type: functional
DBTRG-05MG [27] = test: Induction of apoptosis in human DBTRG-05MG cells assessed as increase in apoptotic body formation at 112.4 uM after 48 hrs in presence of TMZ by TUNEL assay; assay type: functional, cell-based
RG2 [28] = test: Induction of DNA damage in rat RG2 cells assessed as Chk1 phosphorylation at ser345 at 112.4 uM after 48 hrs in presence of TMZ by Western blot analysis (reference value: 1); assay type: functional
RG2 [29] = test: Synergistic cytotoxicity against rat RG2 cells assessed as synergistic effect index at 112.4 uM after 48 hrs in presence of 412.1 uM TMZ by MTT assay; assay type: functional
RG2 [30] = test: Synergistic cytotoxicity against rat RG2 cells assessed as combination index at 89.9 uM after 48 hrs in presence of 103 uM TMZ by MTT assay; assay type: functional
RG2 [31] = test: Inhibition of JNK phosphorylation at Thr183/Tyr185 residues in rat RG2 cells at 112.4uM after 48 hrs by Western blot analysis (reference value: 1); assay type: cell-based
[32] = Effect of MDR1 expression in rat RG2 cells at 112.4 uM after 48 hrs by Western blot analysis; assay type: functional
RG2 [33] = test: Synergistic cytotoxicity against rat RG2 cells assessed as combination index at 112.4 uM after 48 hrs in presence of 206 uM TMZ by MTT assay; assay type: functional
[34] = Toxicity in BALB/c mouse xenografted with DBTRG-05MG cells assessed as inflammatory cell infiltration score in liver at 5 mg/kg, ip for 5 days by H and E staining-based bright field microscopic analysis; assay type: organism-based; conditions: in vivo, 120 h, time 5 day

Cn1nnc2c(C(N)=O)ncn2c1=O [TEMOZOLOMIDE]
fold change (FC) [1]: 0.7 | Activity (RG2 [2]): Active | fold change (FC) [3]: 0.9 | Activity (RG2 [4]): 15.48% | fold change (FC) (DBTRG-05MG [5]): 1.5 | Activity (DBTRG-05MG [6]): 31.03% | fold change (FC) (DBTRG-05MG [7]): 2 | Activity (DBTRG-05MG [8]): 34.67% | Activity (DBTRG-05MG [9]): 43.53% | fold change (FC) (RG2 [10]): 1.3 | Activity (RG2 [11]): 31.81% | fold change (FC) (RG2 [12]): 0.4

C[C@@H]1CC[C@H]2C(C)(C)[C@H]3C[C@@]12CC[C@@]3(C)O [CEDROL]
Activity_index (DBTRG-05MG [13]): 0.84 | Activity (DBTRG-05MG [14]): Active | Activity (DBTRG-05MG [15]): Active | fold change (FC) (DBTRG-05MG [16]): 1 | Activity (DBTRG-05MG [17]): 30.35% | Activity (RG2 [18]): 35.71% | Activity_index (DBTRG-05MG [19]): 0.85 | fold change (FC) (RG2 [20]): 1.1 | fold change (FC) (DBTRG-05MG [21]): 0.4 | CI (RG2 [22]): 1.04 | Activity_index (DBTRG-05MG [23]): 0.66 | fold change (FC) (RG2 [24]): 0.5 | fold change (FC) (DBTRG-05MG [25]): 0.7 | fold change (FC) [26]: 1.5 | Activity (DBTRG-05MG [27]): Active | fold change (FC) (RG2 [28]): 3.5 | Activity_index (RG2 [29]): 0.84 | CI (RG2 [30]): 0.88 | fold change (FC) (RG2 [31]): 0.7 | fold change (FC) [32]: 2.1 | CI (RG2 [33]): 0.79 | Activity [34]: 2.38
